Test results published in US7495027B2, “3-aryl-4-hydroxyfuranone compounds and the human and animal health use thereof” (Wyeth, priority 2003, dated 2009).
Like-named read-outs stand apart in the source and are kept apart here.

Tests used:
[1] = biological target: E. coli Enopyruvyl-UPD-N-acetylglucosamine reductase, Mur B (Escherichia coli, UniProt P08373); test: biochemical; details: (E) E. coli enzyme; for IC50: read-out: MurB IC50 (converted)
[2] = biological target: T1, S. aureus Enopyruvyl-UPD-N-acetylglucosamine reductase, Mur B (Staphylococcus aureus, UniProt P61431); test: biochemical
T1 sequence (P61431 1-307): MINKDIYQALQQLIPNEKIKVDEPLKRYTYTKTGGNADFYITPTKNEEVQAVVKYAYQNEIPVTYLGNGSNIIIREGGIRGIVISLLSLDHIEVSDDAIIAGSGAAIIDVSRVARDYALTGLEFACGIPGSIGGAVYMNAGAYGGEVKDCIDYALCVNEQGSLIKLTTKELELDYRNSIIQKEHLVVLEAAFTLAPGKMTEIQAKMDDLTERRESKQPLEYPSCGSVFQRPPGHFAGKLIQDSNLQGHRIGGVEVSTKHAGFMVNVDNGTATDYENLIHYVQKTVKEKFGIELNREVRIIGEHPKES

[3] = biological target: E. coli Uridine-diphosphate-N-acetvimuramoyl: L-alanine lipase, MurC (Escherichia coli, UniProt P17952); test: Inhibitory activity against MurC (E. coli); assay type: biochemical
E. coli Uridine-diphosphate-N-acetvimuramoyl: L-alanine lipase, MurC, sequence (P17952 whole entry): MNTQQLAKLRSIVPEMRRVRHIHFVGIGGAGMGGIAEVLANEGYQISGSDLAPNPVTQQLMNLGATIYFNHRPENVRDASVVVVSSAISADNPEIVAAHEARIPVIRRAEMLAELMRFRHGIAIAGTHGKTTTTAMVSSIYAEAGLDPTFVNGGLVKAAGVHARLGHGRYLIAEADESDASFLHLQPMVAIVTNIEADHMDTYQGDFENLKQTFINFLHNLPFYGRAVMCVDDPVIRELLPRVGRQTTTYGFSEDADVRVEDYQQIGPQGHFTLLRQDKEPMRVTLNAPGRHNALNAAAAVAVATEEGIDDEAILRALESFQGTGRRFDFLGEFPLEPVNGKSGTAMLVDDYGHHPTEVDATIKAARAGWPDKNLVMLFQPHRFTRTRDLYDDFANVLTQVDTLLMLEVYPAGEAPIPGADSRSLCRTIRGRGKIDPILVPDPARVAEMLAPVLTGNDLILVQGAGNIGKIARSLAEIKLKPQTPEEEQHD

[4] = biological target: E. coli Uridine-diphosphate-N-acetylmuramoyl-L-alanine: D-glutamate liease, MurD (Escherichia coli, UniProt P14900); test: biochemical; details: (E) E. coli enzyme
E. coli Uridine-diphosphate-N-acetylmuramoyl-L-alanine: D-glutamate liease, MurD, sequence (P14900 whole entry): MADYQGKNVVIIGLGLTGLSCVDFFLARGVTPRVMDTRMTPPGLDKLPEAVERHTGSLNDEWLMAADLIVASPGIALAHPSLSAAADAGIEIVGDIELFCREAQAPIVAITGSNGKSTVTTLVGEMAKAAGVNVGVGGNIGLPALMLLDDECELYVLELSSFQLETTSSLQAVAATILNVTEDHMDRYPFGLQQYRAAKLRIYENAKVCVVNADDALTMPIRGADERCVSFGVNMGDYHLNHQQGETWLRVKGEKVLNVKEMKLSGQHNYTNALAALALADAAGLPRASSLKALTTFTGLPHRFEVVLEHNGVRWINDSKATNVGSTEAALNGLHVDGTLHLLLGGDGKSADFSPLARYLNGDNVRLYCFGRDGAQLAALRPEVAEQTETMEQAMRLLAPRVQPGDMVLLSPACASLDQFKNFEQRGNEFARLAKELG
How it was run: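 Final buffer 83 mM Tris/HCl pH 8.0, 50 mM MgCl2, 2 mM ATP. Compounds from 10 mg/mL DMSO stocks diluted to 100 μg/mL in 50 mM Tris/HCl pH 8.5 (working solution, not final assay level).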

[5] = biological target: E. coli UDP-N-acetylglucosamine enolpyruvoyl transferase, MurA (Escherichia coli, UniProt P0A749); test: biochemical; details: (E) E. coli enzyme
E. coli UDP-N-acetylglucosamine enolpyruvoyl transferase, MurA, sequence (P0A749 whole entry): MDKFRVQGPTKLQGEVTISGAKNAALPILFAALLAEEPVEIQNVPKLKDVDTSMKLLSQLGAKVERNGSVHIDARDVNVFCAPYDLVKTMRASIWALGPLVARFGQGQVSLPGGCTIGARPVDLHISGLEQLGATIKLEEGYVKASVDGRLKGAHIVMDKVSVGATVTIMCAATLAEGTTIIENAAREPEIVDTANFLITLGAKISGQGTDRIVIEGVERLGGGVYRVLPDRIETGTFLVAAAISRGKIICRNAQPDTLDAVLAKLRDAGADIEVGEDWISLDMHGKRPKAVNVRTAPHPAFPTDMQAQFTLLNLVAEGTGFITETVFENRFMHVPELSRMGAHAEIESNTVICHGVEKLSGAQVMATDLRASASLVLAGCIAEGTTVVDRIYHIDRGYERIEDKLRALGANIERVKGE
How it was run: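 Compound in DMSO/water pre-incubated 10 min at 37° C with enzyme in 50 mM Tris/HCl pH 8.0, 5 mM DTT, 20% glycerol. After Tris/BME and assay buffer were added, OD340 was read at start. Reaction ran 1 hr at 37° C, then stop solution was added with 30 min colour development.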

[6] = (S) S. aureus enzyme, read-out: MurB IC50 (converted)
[7] = (E) E. coli enzyme, read-out: MurC IC50 (converted)

E. coli Enopyruvyl-UPD-N-acetylglucosamine reductase, Mur B, sequence (P08373 whole entry): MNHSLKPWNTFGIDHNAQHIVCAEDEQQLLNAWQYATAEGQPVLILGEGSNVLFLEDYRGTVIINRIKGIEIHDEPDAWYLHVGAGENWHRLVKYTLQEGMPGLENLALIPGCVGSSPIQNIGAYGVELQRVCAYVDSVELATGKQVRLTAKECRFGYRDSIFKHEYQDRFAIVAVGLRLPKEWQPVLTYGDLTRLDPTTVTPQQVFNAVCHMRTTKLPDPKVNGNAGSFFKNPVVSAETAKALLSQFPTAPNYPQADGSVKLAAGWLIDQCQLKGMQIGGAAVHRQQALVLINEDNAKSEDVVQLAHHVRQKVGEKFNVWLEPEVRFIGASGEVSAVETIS

| SMILES | IC50 [1] | IC50 [2, 6] | IC50 [3, 7] | IC50 [4] | other results |
| --- | --- | --- | --- | --- | --- |
| COC(=O)c1ccc(C2=C(O)/C(=C/c3cccc4ccccc34)OC2=O)cc1 [Example 74] | 59.1 µM | 26.9 µM | 51 µM | > 67.1 µM | – |
| O=C1O/C(=C\c2ccc(Cl)cc2)C(O)=C1c1ccc(-c2ccccc2)c(F)c1 [Example 138] | 56 µM | 7.64 µM | 12.7 µM | – | – |
| O=C1O/C(=C\c2cccc3ccccc23)C(O)=C1c1cc(Cl)cc(Cl)c1 [Example 70] | 18.3 µM | 13 µM | 13 µM | 44.4 µM | – |
| O=C1OC(=Cc2cccc3ccccc23)C(O)=C1c1ccc(C=NO)cc1 (mixture of isomers) [Example 73] | – | – | – | – | MurB IC50 [1]: > 25 µg/mL; MurB IC50 ([2]; (S) S. aureus enzyme): 12 µg/mL; MurC IC50 ([3]; (E) E. coli enzyme): 19 µg/mL |
| O=C1O/C(=C\c2cccc3ccccc23)C(O)=C1c1cccc2ccccc12 [Example 47] | 63.1 µM | 27.4 µM | 30.2 µM | > 68.6 µM | IC50 [5]: > 68.6 µM |
| O=Cc1cccc(C2=C(O)/C(=C/c3cccc4ccccc34)OC2=O)c1 [Example 76] | 20.4 µM | 14.6 µM | 14.6 µM | 67.2 µM | – |
| O=C1O/C(=C\c2cccc3ccccc23)C(O)=C1c1ccc(-c2ccccc2)cc1 [R=H, R1=4-biphenyl, R2=1-naphthyl] | 12.8 µM | – | – | > 64 µM | IC50 [5]: 58.9 µM; IC50 [2]: 25.6 µM; IC50 ([3]; MurC IC50, (E) E. coli enzyme): 15.4 µM |
| O=C1O/C(=C\c2cccc(-c3cccc(Cl)c3)c2)C(O)=C1c1cccc(Cl)c1 [Example 134] | – | 4.89 µM | – | – | MurA IC50 [5]: 5 (E) μg/mL; MurB IC50 [1]: 4 µg/mL; MurC IC50 ([3]; (E) E. coli enzyme): 5 µg/mL; MurD IC50 [4]: 6 µg/mL |
| Cc1cc(C=C2OC(=O)C(c3cc(Cl)cc(Cl)c3)=C2O)ccc1-c1ccccc1Cl [Example 31] | – | – | – | – | MurB IC50 [1]: 2 (E); 2 (S) μg/mL; MurB IC50 ([2]; (S) S. aureus enzyme): 2 (E); 2 (S) μg/mL |
| O=C1O/C(=C\c2cccc3ccccc23)C(O)=C1c1cccc(C=NO)c1 [Example 77] | – | – | – | – | MurB IC50 [1]: 21 µg/mL; MurB IC50 ([2]; (S) S. aureus enzyme): 10 µg/mL; MurC IC50 ([3]; (E) E. coli enzyme): 9 µg/mL |
| COc1ccccc1-c1ccc(/C=C2\OC(=O)C(c3cccc(Cl)c3)=C2O)cc1C [Example 23] | 9.55 µM | 11.9 µM | – | – | – |
| COc1cccc(C2=C(O)/C(=C/c3cccc4ccccc34)OC2=O)c1 [Example 72] | 61 µM | 58.1 µM | > 72.6 µM | > 72.6 µM | – |
| CCOC(=O)c1cccc(C2=C(O)C(=Cc3cccc4ccccc34)OC2=O)c1 [Example 75] | – | – | – | – | MurB IC50 [1]: > 25 µg/mL; MurB IC50 ([2]; (S) S. aureus enzyme): 24 µg/mL; MurC IC50 ([3]; (E) E. coli enzyme): 18 µg/mL |
| Cc1cc(/C=C2\OC(=O)C(c3cc(Cl)cc(Cl)c3)=C2O)ccc1-c1ccccc1OS(C)(=O)=O [Example 39] | – | – | – | – | MurB IC50 [1]: 8 µg/mL; MurB IC50 ([2]; (S) S. aureus enzyme): 4 µg/mL |
| CN(C)c1ccc(C=C2OC(=O)C(c3cc(Cl)cc(Cl)c3)=C2O)c2ccccc12 [Example 80] | – | – | – | – | MurB IC50 [1]: 3 µg/mL; MurB IC50 ([2]; (S) S. aureus enzyme): 1 µg/mL |
| COc1ccccc1-c1ccc(/C=C2\OC(=O)C(c3ccc(Cl)c(Cl)c3)=C2O)cc1OC [Example 20] | 6.39 µM | 6.39 µM | 23.4 µM | > 53.3 µM | – |
| Cc1cc(/C=C2\OC(=O)C(c3cccc(Cl)c3)=C2O)ccc1-c1ccccc1Cl [Example 30] | 4.72 µM | 4.72 µM | – | – | – |
| Cc1ccccc1-c1ccc(/C=C2\OC(=O)C(c3cccc(Cl)c3)=C2O)cc1C [Example 28] | 7.45 µM | 7.45 µM | – | – | – |
| O=C1O/C(=C\c2cccc(-c3cc(Cl)cc(Cl)c3)c2)C(O)=C1c1cc(Cl)cc(Cl)c1 [Example 136] | – | 4.18 µM | – | 12.5 µM | MurB IC50 [1]: 3 µg/mL; MurC IC50 ([3]; (E) E. coli enzyme): 11 µg/mL |
| O=C1O/C(=C\c2ccc(Cl)cc2)C(O)=C1c1ccc2ccccc2c1 [Example 43] | 17.2 µM | 14.3 µM | 11.5 µM | > 71.7 µM | IC50 [5]: 57.3 µM |
| COc1ccccc1-c1ccc(/C=C2\OC(=O)C(c3cc(Cl)cc(Cl)c3)=C2O)cc1OC [Example 19] | 42.6 µM | 21.3 µM | 12.8 µM | > 53.3 µM | – |
| O=C1O/C(=C\c2cccc3ccccc23)C(O)=C1c1ccc(C(F)(F)F)cc1 [Example 71] | 26.2 µM | 26.2 µM | 28.8 µM | > 65.4 µM | – |
| COc1ccccc1-c1ccc(/C=C2\OC(=O)C(c3cc(Cl)cc(Cl)c3)=C2O)cc1C [Example 24] | 8.82 µM | 4.41 µM | – | – | – |
| O=C1O/C(=C\c2ccccc2-c2cccc(Cl)c2)C(O)=C1c1cccc(Cl)c1 [Example 140] | 9.77 µM | 7.33 µM | – | – | – |
| COc1cc(/C=C2\OC(=O)C(c3cc(Cl)cc(Cl)c3)=C2O)ccc1-c1ccccc1C [Example 25] | 4.41 µM | 4.41 µM | – | – | – |
| CN(C)c1ccc(/C=C2\OC(=O)C(c3ccc(C(F)(F)F)cc3)=C2O)c2ccccc12 [Example 81] | 54.1 µM | 35.3 µM | – | – | – |
| Cc1cc(/C=C2\OC(=O)C(c3cc(Cl)cc(Cl)c3)=C2O)ccc1-c1ccccc1C(F)(F)F [Example 27] | 6.11 µM | 4.07 µM | – | – | – |
| O=C1O/C(=C\c2ccccc2-c2ccc(Cl)cc2)C(O)=C1c1ccc(Cl)cc1 [Example 137] | 51.3 µM | 7.33 µM | 41.5 µM | – | – |
